Source: US9696297B2, “Method for preparing an X chromosome inactivated female human neural cell” (SALK INSTITUTE FOR BIOLOGICAL STUDIES, priority 2009, dated 2017)
“Also recorded” adds a separate entry of the source.

What was measured:
[1] = tested on: iPSC-derived neurons; assay: Whole-cell patch clamp recording of spontaneous postsynaptic currents; assay type: cell-based, human; conditions: for EPSCs: 10-20 μM
Description: Whole-cell patch clamp recordings were performed from cells co-cultured with astrocytes after 6 weeks of differentiation. The bath was constantly perfused with fresh HEPES-buffered saline as described herein. The recording micropipettes (tip resistance 3-6 MΩ) were filled with internal solution described in the Supplemental materials. Recordings were made using Axopatch 200B amplifier (Axon Instruments). Signals were filtered at 2 kHz and sampled at 5 kHz. The whole-cell capacitance was fully compensated. The series resistance was uncompensated but monitored during the experiment by the amplitude of the capacitive current in response to a 10-mV pulse. All recordings were performed at room temperature and chemicals were purchased from Sigma. Frequency and amplitude of spontaneous postsynaptic currents were measured with the Mini Analysis Program software (Synaptosoft, Leonia, N.J.). Statistical comparisons of WT and RTT groups were made using the non-parametric Kolmogorov-Smirnov two-tailed test, with a significance criterion of p=0.05. EPSCs were blocked by CNQX or DNQX (10-20 μM) and IPSPs were inhibited by bicuculine (20 μM).

[2] = tested on: iPSC-derived neuronal networks; assay: Calcium imaging of spontaneous calcium transients in iPSC-derived neuronal networks; conditions: drug treatment, concentration not printed (FIG. 11A, 11C, 11D)
Description: Neuronal networks derived from human iPSCs were previously infected with the lentiviral vector carrying the Syn::DsRed reporter construct. Cell cultures were washed twice with sterile Krebs HepesHEPES Buffer (KHB) (10 mM HEPES, 4.2 mM NaHCO3, 10 mM dextrose, 1.18 mM MgSO4.2H2O, 1.18 mM KH2PO4, 4.69 mM KCl, 118 mM NaCl, 1.29 mM CaCl2; pH 7.3) and incubated with 0.2-0.5 μM Fluo-4AM (Molecular Probes/Invitrogen, Carlsbad, Calif.) in KHB for 40 minutes at room temperature. Excess dye was removed by washing twice with KHB and an additional 20-minute minutes incubation was done to equilibrate intracellular dye concentration and allow de-esterification. Time-lapse image sequences (200×100× magnification) of 5000 frames were acquired at 28 Hz with a region of 336×256 pixels, using a Hamamatsu ORCA-ER digital camera (Hamamatsu Photonics K.K., Hamamatsu City, Japan) with a 488 mm (FITC) filter on an Olympus IX81 inverted fluorescence confocal microscope (Olympus Optical, Tokyo, Japan). […]
ImageJ, an NIH funded open source, JAVA-based morphometric application, was used to allow manual selection of individual cells on the xy-plane of each movie using circles of 4 pixels (˜5 μm) in diameter. Each cell was considered as an individual region of interest (ROIs) and the average fluorescence intensity was calculated for each ROI in each frame using Time Series Analyzer ImageJ plugin. […]

[3] = tested on: RTT-derived neurons; assay: VGLUT1 puncta (glutamatergic synapse) quantification in RTT-iPSC-derived neurons, rescue experiments; assay type: cell-based, human; conditions: for VGLUT1 puncta number / glutamatergic synapse number: RTT-derived neurons carrying different MeCP2 mutations, IGF1 10 μg/mL for 1 week
[4] = tested on: WT neurons; assay: VGLUT1 puncta (glutamatergic synapse) quantification in WT-iPSC-derived control neurons; assay type: cell-based, human; conditions: gentamicin 400 ug/ml, 1 week
Source text: Female RTT and control fibroblasts were generated from explants of dermal biopsies following informed consent under protocols approved by the University of California San Diego. The Syn::EGFP or DsRed reporter vector was obtained by cloning the Synapsin-1 promoter in a lentivirus backbone. The shRNA against a target sequence on the human MeCP2 gene was cloned in the LentiLox3.7 lentivirus vector. Retrovirus vectors containing the Oct4, c-Myc, Klf4 and Sox2 human cDNAs from Yamanaka's group (Takahashi et al., 2007, Id.) were obtained from Addgene. Two days after infection, fibroblasts were plated on mitotically inactivated mouse embryonic fibroblasts (Chemicon) with hESC medium. After 2 weeks, iPSC colonies were directly transferred to feeder-free conditions on matrigel-coated dishes (BD) using mTeSRTM1 (StemCell Technologies), and passed manually. […]
Cells were briefly fixed in 4% paraformaldehyde and then permeabilized with 0.5% Triton-X100 in PBS. […] Fluorescent signals were detected using a Zeiss inverted microscope and images were processed with Photoshop CS3 (Adobe Systems). […] For synapse quantification, images were taken by a z-step of 1 μm using Biorad radiance 2100 confocal microscope. Synapse quantification was done blinded to genotype. Only VGLUT1 puncta along Map2-positive processes were counted. […]

[5] = tested on: MeCP2; assay: MeCP2 protein level by Western blot in RTT neurons (Q244X); assay type: cell-based, human; conditions: gentamicin

Compound: O=[N+]([O-])c1cc2nc(O)c(O)nc2cc1[N+](=O)[O-] [DNQX]
- EPSCs [1]: blocked

Compound: CN1CCc2cc3c(cc2[C@H]1[C@@H]1OC(=O)c2c1ccc1c2OCO1)OCO3 [bicuculine]
- IPSPs ([1]; 20 μM): inhibited

Compound: COc1ccc(-c2ccc(=N)n(CCCC(=O)O)n2)cc1 [Gabazine]
- intracellular calcium transients [2]: increased

Compound: IGF1: IGF1 (Peprotech), candidate for pharmacological treatment of RTT
- VGLUT1 puncta number / glutamatergic synapse number [3]: increased
- VGLUT1 puncta number / glutamatergic synapse number ([3]; listed as IFG1): above normal levels

Compound: N#Cc1cc2[nH]c(=O)c(=O)[nH]c2cc1[N+](=O)[O-] [CNQX]
- EPSCs [1]: blocked

Compound: gentamicin
- number of VGLUT1 puncta in control neurons [4]: lowered
- WT MeCP2 protein levels ([5]; RTT neurons (Q244X), after 2 weeks (FIG. 10E)): increased
- MeCP2 protein levels ([5]; RTT-Q244X clones 3 and 4 derived neurons, after 1 week): increase
- rescue of RTT neurons (VGLUT1 puncta) ([3]; RTT neurons, higher gentamicin dose 400 ug/ml, 1 week): did not rescue
- glutamatergic synapse numbers (VGLUT1 puncta) ([3]; RTT-Q244X clones 3 and 4 derived neurons, lower gentamicin dose (100 ug/ml), 1 week): increased; also recorded: rescuing; also recorded: rescue
